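Grown in 96-well plates, cells were treated for 48 hours with each compound at five concentrations. Insufficient inhibition: endpoint recorded as highest concentration tested. GI50 marks 50% less growth.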 The source made the active and inactive calls. No stated cut-off is given here; in the data, active = GI50 up to about 1.1 µM and inactive = higher.
What was measured:
Test in all cases: NCI tumour cell line growth inhibition, 48 h
SW-620 = tested on: SW-620
HCT-15 = tested on: HCT-15
TK-10 = tested on: TK-10
ACHN = tested on: ACHN
NCI/ADR-RES = tested on: NCI/ADR-RES
NCI-H522 = tested on: NCI-H522
RPMI-8226 = tested on: RPMI-8226
NCI-H460 = tested on: NCI-H460
HT-29 = tested on: HT-29
SF-295 = tested on: SF-295
HL-60 = tested on: HL-60
BT-549 = tested on: BT-549
SR = tested on: SR
KM12 = tested on: KM12
EKVX = tested on: EKVX
SF-268 = tested on: SF-268
MDA-MB-231 = tested on: MDA-MB-231
Malme-3M = tested on: Malme-3M
SK-OV-3 = tested on: SK-OV-3
RXF 393 = tested on: RXF 393

Compound | GI50 (SW-620) | GI50 (HCT-15) [µM] | GI50 (TK-10) | GI50 (ACHN) | GI50 (NCI/ADR-RES) | GI50 (NCI-H522) | GI50 (RPMI-8226) | GI50 (NCI-H460) | GI50 (HT-29) | GI50 (SF-295) | GI50 (HL-60) | GI50 (BT-549) | GI50 (SR) | GI50 (KM12) | GI50 (EKVX) | GI50 (SF-268) | GI50 (MDA-MB-231) | GI50 (Malme-3M) | GI50 (SK-OV-3) | GI50 (RXF 393)
CC(=O)OCC1C(C(C)OC(C)=O)CCC2C1CCC1(C)C(OC(C)=O)CCC21 (stereo not drawn) | 17.9 µM (inactive) | 19.7 | > 100 µM (inactive) | 14.8 µM (inactive) | 17 µM (inactive) | 20.6 µM (inactive) | 16.5 µM (inactive) | 16.9 µM (inactive) | 16 µM (inactive) | 21 µM (inactive) | 17.1 µM (inactive) | 11.6 µM (inactive) | 23.7 µM (inactive) | 15.7 µM (inactive) | 15.6 µM (inactive) | 23.9 µM (inactive) | 15.6 µM (inactive) | 16.9 µM (inactive) |  | 
c1cncc(CC2(c3cc4ccccc4[nH]3)OCCO2)c1 | > 100 µM (inactive) | > 100 | > 100 µM (inactive) | > 100 µM (inactive) | > 100 µM (inactive) | > 100 µM (inactive) |  | > 100 µM (inactive) | > 100 µM (inactive) | > 100 µM (inactive) | 37.2 µM (inactive) | 66.1 µM (inactive) | 85.5 µM (inactive) | > 100 µM (inactive) |  | > 100 µM (inactive) | > 100 µM (inactive) | > 100 µM (inactive) | > 100 µM (inactive) | 
O=C(NNC(=S)NC1CCCCC1)c1csc(NC(=S)NC2CCCCC2)n1 | 5.13 µM (inactive) | 0.463 | 6.38 µM (inactive) | 3.54 µM (inactive) | 2.74 µM (inactive) | 12 µM (inactive) | 9.86 µM (inactive) |  | > 100 µM (inactive) | 5.87 µM (inactive) | > 100 µM (inactive) | 2.9 µM (inactive) | 5.4 µM (inactive) | 10.6 µM (inactive) | > 100 µM (inactive) | 6.21 µM (inactive) | 17.8 µM (inactive) | 11.2 µM (inactive) | 11.7 µM (inactive) | 
C[N+](C)(CCNc1ccc(NCC[N+](C)(C)Cc2ccc([N+](=O)[O-])cc2)c2c1C(=O)c1c(O)ccc(O)c1C2=O)Cc1ccc([N+](=O)[O-])cc1 | > 50 µM (inactive) | 35.8 | > 50 µM (inactive) | > 50 µM (inactive) | > 50 µM (inactive) | > 50 µM (inactive) | > 50 µM (inactive) | 3.2 µM (inactive) | 17.7 µM (inactive) | 16.7 µM (inactive) | > 50 µM (inactive) | 26.5 µM (inactive) |  | 1.36 µM (inactive) | > 50 µM (inactive) | > 50 µM (inactive) | 2.65 µM (inactive) | 30 µM (inactive) | > 50 µM (inactive) | > 50 µM (inactive)
CC(=O)O[C@H]1C[C@H](O[C@H]2[C@@H](O)C[C@H](O[C@H]3[C@@H](O)C[C@H](O[C@H]4CC[C@@]5(C)[C@H](CC[C@@H]6[C@@H]5C[C@@H](O)[C@]5(C)[C@@H](C7=CC(=O)OC7)CC[C@]65O)C4)O[C@@H]3C)O[C@@H]2C)O[C@H](C)[C@H]1O[C@@H]1O[C@H](CO)[C@@H](O)[C@H](O)[C@H]1O [LANATOSIDE C] | 0.0536 µM (active) | 0.0409 | 0.0454 µM (active) | 0.0283 µM (active) | 0.0364 µM (active) | 0.0137 µM (active) | 0.0368 µM (active) | 0.0138 µM (active) | 0.048 µM (active) | 0.0426 µM (active) | 0.0332 µM (active) | 0.044 µM (active) | 0.1 µM (active) | 0.104 µM (active) | 0.0284 µM (active) | 0.0436 µM (active) | 0.372 µM (active) | 0.0678 µM (active) | 0.0597 µM (active) | 
CN(CCCN(C)CCc1ccc(Cl)c(Cl)c1)CCCN1CCCC1 | 2.26 µM (inactive) | 2.31 | 2.05 µM (inactive) | 7.11 µM (inactive) | 6.08 µM (inactive) | 1.56 µM (inactive) | 0.228 µM (active) | 2.27 µM (inactive) | 0.55 µM (active) | 2.28 µM (inactive) | 1.62 µM (inactive) | 6.03 µM (inactive) |  | 2.61 µM (inactive) | 3.35 µM (inactive) | 2.12 µM (inactive) | 1.33 µM (inactive) | 2.16 µM (inactive) | 10.2 µM (inactive) | 1.61 µM (inactive)
S=C1SC(c2ccc(Cl)cc2)(c2ccc(Cl)cc2)c2ccccc21 | 68.7 µM (inactive) | 65 | > 100 µM (inactive) | > 100 µM (inactive) | > 100 µM (inactive) | 91.8 µM (inactive) |  | > 100 µM (inactive) | 28 µM (inactive) | 53.7 µM (inactive) |  | 79.1 µM (inactive) | 20.4 µM (inactive) | 40.3 µM (inactive) | 91.4 µM (inactive) | 95.1 µM (inactive) | > 100 µM (inactive) | > 100 µM (inactive) | > 100 µM (inactive) | 56.9 µM (inactive)
CCOC(=O)c1c[nH]c(C(=O)OCC)c1-c1cccn1-c1ccccc1 | 35.2 µM (inactive) | 30.4 | 36 µM (inactive) | 26.2 µM (inactive) | 19.1 µM (inactive) | 13 µM (inactive) | 14.2 µM (inactive) | 23 µM (inactive) | 26.4 µM (inactive) | 19.3 µM (inactive) | 18.4 µM (inactive) | 25.3 µM (inactive) |  | 10.1 µM (inactive) | 24.8 µM (inactive) | 25.5 µM (inactive) | 28.6 µM (inactive) | 10.8 µM (inactive) | 28.4 µM (inactive) | 16 µM (inactive)
CC(C)(C)[Si](C)(C)OCC1OC(n2ccc(N)nc2=O)C(O[Si](C)(C)C(C)(C)C)C1O[Si](C)(C)C(C)(C)C (stereo not drawn) | 1.58 µM (inactive) | 2.23 |  | 1.82 µM (inactive) | 15.8 µM (inactive) | 1.83 µM (inactive) |  | 1.9 µM (inactive) | 1.56 µM (inactive) | 1.74 µM (inactive) |  | 1.62 µM (inactive) | 2.73 µM (inactive) |  | 3.22 µM (inactive) | 2.56 µM (inactive) | 10.8 µM (inactive) | 1.8 µM (inactive) | 2.75 µM (inactive) | 
O=C(CSCC(=O)N/N=C\c1cc(Cl)cc(Cl)c1O)N/N=C\c1cc(Cl)cc(Cl)c1O | 3.79 µM (inactive) | 2.99 | 3.63 µM (inactive) | 0.204 µM (active) | 2.96 µM (inactive) | 1.71 µM (inactive) |  | 14.9 µM (inactive) | 10.5 µM (inactive) | 6.53 µM (inactive) | 2.75 µM (inactive) | 4.81 µM (inactive) | 1.77 µM (inactive) | 6.1 µM (inactive) | 4.45 µM (inactive) | 2.32 µM (inactive) | 2.48 µM (inactive) | 1.87 µM (inactive) | 8.55 µM (inactive) | 20.5 µM (inactive)
C=CCNC(=O)/C(Cc1cc(Br)c(OC)c(Br)c1O)=N\O | 3.15 µM (inactive) | 2.57 | 10.6 µM (inactive) | 13.4 µM (inactive) | 2.44 µM (inactive) | 1.78 µM (inactive) | 4.23 µM (inactive) | 3.84 µM (inactive) | 15 µM (inactive) | 3.64 µM (inactive) | 1.29 µM (inactive) | 3.03 µM (inactive) | 1.17 µM (inactive) | 2.77 µM (inactive) | 3.81 µM (inactive) | 3.58 µM (inactive) | 6.73 µM (inactive) | 1.34 µM (inactive) |  | 
COc1cc(/C=C2\C(=O)N(c3cccc(Cl)c3)C(c3ccccc3)S2(=O)=O)cc(OC)c1OC (stereo not drawn) | 59.7 µM (inactive) | 54.3 | > 100 µM (inactive) | 76.7 µM (inactive) | 38.1 µM (inactive) | 17.8 µM (inactive) | 23.2 µM (inactive) | > 100 µM (inactive) | > 100 µM (inactive) | 36.4 µM (inactive) | 36.4 µM (inactive) | > 100 µM (inactive) |  | 58.1 µM (inactive) | > 100 µM (inactive) | 55.8 µM (inactive) | > 100 µM (inactive) | 43.4 µM (inactive) | 58.1 µM (inactive) | 26.2 µM (inactive)
O=c1cc(N2CCCC2)[nH]c(=O)n1-c1ccc(F)cc1 | > 100 µM (inactive) | > 100 | > 100 µM (inactive) | > 100 µM (inactive) | > 100 µM (inactive) | > 100 µM (inactive) | > 100 µM (inactive) | > 100 µM (inactive) | > 100 µM (inactive) | > 100 µM (inactive) | > 100 µM (inactive) | > 100 µM (inactive) |  | > 100 µM (inactive) | > 100 µM (inactive) | > 100 µM (inactive) | > 100 µM (inactive) | > 100 µM (inactive) | > 100 µM (inactive) | > 100 µM (inactive)
CCOC(=O)c1cc2cc(N(C(C)=O)C(C)=O)ccc2s1 | 36.2 µM (inactive) | 36.1 | 56.6 µM (inactive) | 25.2 µM (inactive) | 33.7 µM (inactive) | 16.8 µM (inactive) | 19.6 µM (inactive) | 38.5 µM (inactive) | 20 µM (inactive) | 30.8 µM (inactive) | 13 µM (inactive) | 29.9 µM (inactive) |  | 40.5 µM (inactive) | 20.6 µM (inactive) | 23.2 µM (inactive) | 23 µM (inactive) | 16.6 µM (inactive) | 30.4 µM (inactive) | 13.5 µM (inactive)
CC(C)(C)n1c(=O)[nH]c(=O)n1C(C)(C)C | > 100 µM (inactive) | > 100 | > 100 µM (inactive) | > 100 µM (inactive) | > 100 µM (inactive) |  |  | > 100 µM (inactive) | > 100 µM (inactive) | > 100 µM (inactive) | > 100 µM (inactive) | > 100 µM (inactive) | > 100 µM (inactive) | > 100 µM (inactive) | > 100 µM (inactive) |  | > 100 µM (inactive) | > 100 µM (inactive) | > 100 µM (inactive) | > 100 µM (inactive)
